One data set concerns μ opiate receptor. Also noted: species or system guinea-pig.
Data set [1] is described as follows: Formalin-induced hind paw licking test (mouse analgesia model). The conditions noted are these: for % Reduction in Hind Paw Licking time: given one hour before subplantar formalin, licking time recorded during the following 20 to 30 minute period. Format: in vivo, ICR derived male mice.
Data set [2] is described as follows: PQ-induced writhing test (mouse analgesia model). Format: in vivo, ICR derived male mice. The conditions noted are these: for % Reduction in Writhes: given 30 minutes before PQ (2 mg/kg), writhes 5 to 10 minutes after PQ. Background: In writhing tests, fewer writhes than in controls are read as antinociception.
The conditions of data set [3]: in vivo.

SMILES strings stand for the structures. Values joined by “and” are separate entries in the source; they are usually repeats but may differ in a detail not shown here. Identical values can stand only once. Like-named read-outs stand apart in the source and are kept apart here.

In the case of `N=C(N)N1CC[C@]23c4c5ccc(O)c4O[C@H]2[C@@H](O)C=CC3[C@H]1C5` (stereo partly drawn) [KRS-2-19, (5α,6α)-7,8-didehydro-4,5-epoxy-17-N-(2-carboxamidino)-morphinan-3,6, -diol], in the data set with μ opiate receptor, the “agonist character (full / partial)” value is recorded as “only partial morphine agonist activity”.
With `COc1ccc2c3c1O[C@H]1[C@@H](O)C=CC4[C@@H](C2)N(CCC(=N)N)CC[C@@]341` (stereo partly drawn) [KRS-2-63, 5α,6α-7,8-didehydro-4,5-epoxy-3-methoxy-17-N-[(2-aminoiminomethyl)ethyl]morphinan], the “agonist character (full / partial)” value in the data set on μ opiate receptor was “partial agonist activity”.
For the compound `N=C(N)CCN1CC[C@]23c4c5ccc(O)c4O[C@H]2[C@@H](O)C=CC3[C@H]1C5` (stereo partly drawn) [KRS-41, (5α,6α)-7,8-didehydro-4,5-epoxy-17-N-[(2-aminoiminomethyl)ethyl]-morphinan-3,6-diol], the “% Reduction in Hind Paw Licking time” value in data set [1] (10 mg/kg) is listed as 12%. Further, in data set [1] (30 mg/kg), the “% Reduction in Hind Paw Licking time” value is on record as 75%. Also, in data set [1] (formalin test, relative to morphine), the “analgesic activity at multiple of the morphine concentration” value is on record as 3 times the morphine concentration. In addition, the “% Reduction in Writhes” value in data set [2] (3 mg/kg) stood at 18%. For the same compound, the “% Reduction in Writhes” value in data set [2] (15 mg/kg) is listed as 93%. Besides, the “analgesic activity at multiple of the morphine concentration” value in data set [2] (PQ writhing test, relative to morphine) was 5 times the morphine concentration. In addition, the “opiate activity in stimulated ileum compared to standard” value in the data set with μ opiate receptor was “excellent activity compared to morphine”. In data set [3] (30 mg/kg), the Corneal reflex is given as 4.9 ± 0.1, the Grip strength is listed as 5.1 ± 0.4, the “Positional Passivity” value was 4.7 ± 0.3 and the Respiratory rate is listed as 5.1 ± 0.2. Moreover, in data set [3] (30 mg/kg), the Tail elevation came to 2.0 ± 0.4.
Consider `CN1CC[C@]23c4c5ccc(O)c4O[C@H]2[C@@H](O)C=C[C@H]3[C@H]1C5.Cl` [Morphine HCl, reference compound], for which the “% Reduction in Hind Paw Licking time” value in data set [1] (10 mg/kg) is 100%. Further, the “% Reduction in Writhes” value in data set [2] (3 mg/kg, HCl) was 87% and 73%.
As for `CN1CC[C@]23c4c5ccc(O)c4O[C@H]2[C@@H](O)C=C[C@H]3[C@H]1C5` [Morphine, reference compound], in data set [3] (10 mg/kg), the Corneal reflex is on record as 2.9 ± 0.2, the Grip strength is recorded as 3.7 ± 0.3, the “Positional Passivity” value was determined as 8.7 ± 0.4 and the Respiratory rate is reported as 4.1 ± 0.3. The same compound came in with a Tail elevation in data set [3] (10 mg/kg) of 7.0 ± 0.7.
